According to patent publication US8134015B2, “Compound inhibiting in vivo phosphorous transport and medicine containing the same” (Kyowa Hakko Kirin Co., Ltd., priority 2003, dated 2012):

The compounds below were run against T1, rat NaPi-2b (Rattus norvegicus, UniProt Q9JJ09) (assay: Sodium-dependent phosphate uptake of Xenopus oocytes which expressed NaPi-2b (32P)). Settings: Xenopus oocytes expressing rat NaPi-2b, 32P radioactive phosphorus; read-out: IC50 (phosphate uptake inhibitory activity).
T1 construct: expressed in transfected cells; host or cells: Xenopus oocytes injected with cRNA
T1 sequence (Q9JJ09 1-695): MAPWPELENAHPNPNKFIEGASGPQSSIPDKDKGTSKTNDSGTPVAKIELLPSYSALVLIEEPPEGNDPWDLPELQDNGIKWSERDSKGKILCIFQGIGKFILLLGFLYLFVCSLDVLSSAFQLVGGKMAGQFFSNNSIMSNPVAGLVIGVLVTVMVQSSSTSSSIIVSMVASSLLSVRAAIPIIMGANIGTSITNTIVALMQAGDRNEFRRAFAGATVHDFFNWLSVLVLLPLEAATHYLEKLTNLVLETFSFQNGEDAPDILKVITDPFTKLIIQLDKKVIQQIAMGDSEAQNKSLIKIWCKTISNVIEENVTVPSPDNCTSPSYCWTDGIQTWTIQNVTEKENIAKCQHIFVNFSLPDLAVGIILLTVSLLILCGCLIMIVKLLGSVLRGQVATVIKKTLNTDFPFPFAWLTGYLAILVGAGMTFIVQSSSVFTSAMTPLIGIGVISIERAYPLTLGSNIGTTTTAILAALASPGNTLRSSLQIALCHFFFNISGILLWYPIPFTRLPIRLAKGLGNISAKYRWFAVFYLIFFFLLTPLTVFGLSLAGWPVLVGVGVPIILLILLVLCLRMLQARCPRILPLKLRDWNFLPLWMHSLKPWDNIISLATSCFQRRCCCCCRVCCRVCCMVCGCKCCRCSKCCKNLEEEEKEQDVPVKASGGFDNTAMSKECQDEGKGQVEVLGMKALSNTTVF
Type: cell-based
Procedure, shortened: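 Read-out is 32P phosphate uptake into Xenopus oocytes expressing rat intestinal NaPi-2b (cRNA injection, 2-day culture). Inhibition at 300 μM and 100 μM was derived from a single inhibition curve and given as percent.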

Structure (SMILES)	IC50 [µM]
Cc1ccc(/C=N/NC(=O)c2cc(Br)ccc2NC(=O)c2ccc(CN(C)CC(O)c3ccc(O)cc3)cc2)cc1C (stereo not drawn) [Compound 724, N-[4-Bromo-2-(3,4-dimethyl-benzylidene-hydrazinocarbonyl)-phenyl]-4-({[2-hydroxy-2-(4-hydroxy-phenyl)-ethyl]-methyl-amino}-methyl)-benzamide]	17.1
CN(Cc1ccc(C(=O)Nc2ccc(Br)cc2C(=O)N/N=C/c2cccc(F)c2)cc1)CC(O)c1ccc(O)cc1 (stereo not drawn) [Compound 725, N-[4-Bromo-2-(3-fluoro-benzylidene-hydrazinocarbonyl)-phenyl]-4-({[2-hydroxy-2-(4-hydroxy-phenyl)-ethyl]-methyl-amino}-methyl)-benzamide]	69.4
CN(Cc1ccc(C(=O)Nc2ccc(Br)cc2C(=O)N/N=C/c2ccc(Cl)c(C(F)(F)F)c2)cc1)CC(O)c1ccc(O)cc1 (stereo not drawn) [Compound 726, N-[4-Bromo-2-(4-chloro-3-trifluoromethyl-benzylidene-hydrazinocarbonyl)-phenyl]-4-({[2-hydroxy-2-(4-hydroxy-phenyl)-ethyl]-methyl-amino}-methyl)-benzamide]	< 3
Cc1ccc(/C=N/NC(=O)c2cc(Br)ccc2NC(=O)c2ccc(CN3CCN(CC(=O)N4CCOCC4)CC3)cc2)cc1 [Compound 728, N-[4-Bromo-2-(4-methyl-benzylidene-hydrazinocarbonyl)-phenyl]-4-[4-(2-morpholin-4-yl-2-oxo-ethyl)-piperazin-1-ylmethyl]-benzamide]	20.3
Cc1cccc(/C=N/NC(=O)c2cc(Br)ccc2NC(=O)c2ccc(CN3CCN(CC(=O)N4CCOCC4)CC3)cc2)c1 [Compound 729, N-[4-Bromo-2-(3-methyl-benzylidene-hydrazinocarbonyl)-phenyl]-4-[4-(2-morpholin-4-yl-2-oxo-ethyl)-piperazin-1-ylmethyl]-benzamide]	27.3
O=C(Nc1ccc(Br)cc1C(=O)N/N=C/c1ccc(F)cc1)c1ccc(CN2CCN(CC(=O)N3CCOCC3)CC2)cc1 [Compound 730, N-[4-Bromo-2-(4-fluoro-benzylidene-hydrazinocarbonyl)-phenyl]-4-[4-(2-morpholin-4-yl-2-oxo-ethyl)-piperazin-1-ylmethyl]-benzamide]	15.7
O=C(Nc1ccc(Br)cc1C(=O)N/N=C/c1cccc(F)c1)c1ccc(CN2CCN(CC(=O)N3CCOCC3)CC2)cc1 [Compound 731, N-[4-Bromo-2-(3-fluoro-benzylidene-hydrazinocarbonyl)-phenyl]-4-[4-(2-morpholin-4-yl-2-oxo-ethyl)-piperazin-1-ylmethyl]-benzamide]	19.2
COc1cccc(/C=N/NC(=O)c2cc(Br)ccc2NC(=O)c2ccc(CN3CCN(CC(=O)N4CCOCC4)CC3)cc2)c1 [Compound 732, N-[4-Bromo-2-(3-methoxy-benzylidene-hydrazinocarbonyl)-phenyl]-4-[4-(2-morpholin-4-yl-2-oxo-ethyl)-piperazin-1-ylmethyl]-benzamide]	29.4
O=C(Nc1ccc(Br)cc1C(=O)N/N=C/c1ccc(F)cc1)c1ccc(CN2CCC(CCO)CC2)cc1 [Compound 743, N-[4-Bromo-2-(4-fluoro-benzylidene-hydrazinocarbonyl)-phenyl]-4-[4-(2-hydroxy-ethyl)-piperidin-1-ylmethyl]-benzamide]	14.4

Second part, the compound after the results:

IC50 [µM]	Structure (SMILES)
18	COc1cccc(/C=N/NC(=O)c2cc(Br)ccc2NC(=O)c2ccc(CN(CC(C)O)CC(C)O)cc2)c1 (stereo not drawn) [Compound 723, 4-{[Bis-(2-hydroxy-propyl)-amino]-methyl}-N-[4-bromo-2-(3-methoxy-benzylidene-hydrazinocarbonyl)-phenyl]-benzamide]
< 10	CCOCCN(CCOCC)Cc1ccc(C(=O)Nc2ccc(Br)cc2C(=O)N/N=C/c2ccc(C)c(C)c2)cc1 [Compound 733, 4-{[Bis-(2-ethoxy-ethyl)-amino]-methyl}-N-[4-bromo-2-(3,4-dimethyl-benzylidene-hydrazinocarbonyl)-phenyl]-benzamide]
18.3	CCOCCN(CCOCC)Cc1ccc(C(=O)Nc2ccc(Br)cc2C(=O)N/N=C/c2cccc(C)c2)cc1 [Compound 735, 4-{[Bis-(2-ethoxy-ethyl)-amino]-methyl}-N-[4-bromo-2-(3-methyl-benzylidene-hydrazinocarbonyl)-phenyl]-benzamide]
4.24	CCOCCN(CCOCC)Cc1ccc(C(=O)Nc2ccc(Br)cc2C(=O)N/N=C/c2cccc(F)c2)cc1 [Compound 737, 4-{[Bis-(2-ethoxy-ethyl)-amino]-methyl}-N-[4-bromo-2-(3-fluoro-benzylidene-hydrazinocarbonyl)-phenyl]-benzamide]
7.55	CCOCCN(CCOCC)Cc1ccc(C(=O)Nc2ccc(Br)cc2C(=O)N/N=C/c2ccc(Cl)c(C(F)(F)F)c2)cc1 [Compound 738, 4-{[Bis-(2-ethoxy-ethyl)-amino]-methyl}-N-[4-bromo-2-(4-chloro-3-trifluoromethyl-benzylidene-hydrazinocarbonyl)-phenyl]-benzamide]

Same assay, conditions: phosphate uptake, oocytes expressing rat NaPi-2b; 300 μM, determined from inhibition curve

Structure (SMILES)	inhibition at 300 µM [%]
COc1cccc(/C=N/NC(=O)c2cc(Br)ccc2NC(=O)c2ccc(CN(C)CC(O)c3ccc(O)cc3)cc2)c1 (stereo not drawn) [Compound 727, N-[4-Bromo-2-(3-methoxy-benzylidene-hydrazinocarbonyl)-phenyl]-4-({[2-hydroxy-2-(4-hydroxy-phenyl)-ethyl]-methyl-amino}-methyl)-benzamide]	67.7
Cc1ccc(/C=N/NC(=O)c2cc(Br)ccc2NC(=O)c2ccc(CN3CCC(CCO)CC3)cc2)cc1 [Compound 741, N-[4-Bromo-2-(4-methyl-benzylidene-hydrazinocarbonyl)-phenyl]-4-[4-(2-hydroxy-ethyl)-piperidin-1-ylmethyl]-benzamide]	50.9
Cc1cccc(/C=N/NC(=O)c2cc(Br)ccc2NC(=O)c2ccc(CN3CCC(CCO)CC3)cc2)c1 [Compound 742, N-[4-Bromo-2-(3-methyl-benzylidene-hydrazinocarbonyl)-phenyl]-4-[4-(2-hydroxy-ethyl)-piperidin-1-ylmethyl]-benzamide]	77.6

Results, then the compound that gave them:

inhibition at 300 µM [%]	Structure (SMILES)
64.9	CCOCCN(CCOCC)Cc1ccc(C(=O)Nc2ccc(Br)cc2C(=O)N/N=C/c2ccc(C)cc2)cc1 [Compound 734, 4-{[Bis-(2-ethoxy-ethyl)-amino]-methyl}-N-[4-bromo-2-(4-methyl-benzylidene-hydrazinocarbonyl)-phenyl]-benzamide]
61.5	CCOCCN(CCOCC)Cc1ccc(C(=O)Nc2ccc(Br)cc2C(=O)N/N=C/c2ccc(F)cc2)cc1 [Compound 736, 4-{[Bis-(2-ethoxy-ethyl)-amino]-methyl}-N-[4-bromo-2-(4-fluoro-benzylidene-hydrazinocarbonyl)-phenyl]-benzamide]
58.9	CCOCCN(CCOCC)Cc1ccc(C(=O)Nc2ccc(Br)cc2C(=O)N/N=C/c2ccc(OC)cc2)cc1 [Compound 739, 4-{[Bis-(2-ethoxy-ethyl)-amino]-methyl}-N-[4-bromo-2-(4-methoxy-benzylidene-hydrazinocarbonyl)-phenyl]-benzamide]
58.5	CCOCCN(CCOCC)Cc1ccc(C(=O)Nc2ccc(Br)cc2C(=O)N/N=C/c2cccc(OC)c2)cc1 [Compound 740, 4-{[Bis-(2-ethoxy-ethyl)-amino]-methyl}-N-[4-bromo-2-(3-methoxy-benzylidene-hydrazinocarbonyl)-phenyl]-benzamide]
